Measured values from PubChem BioAssay (NCI).
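Protocol summary: plate cells (96-well), add compound at 5 concentrations, incubate 48 h, interpolate endpoints linearly. GI50: concentration for 50% inhibition of growth. At the TGI there is no net growth.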

Tests used:
Assay in all cases: inhibition of tumour cell growth, NCI panel, 48 h
SNB-19 CNS = tested on: SNB-19 CNS
NCI-H23 lung = tested on: NCI-H23 lung
SF-268 CNS = tested on: SF-268 CNS
SF-539 CNS = tested on: SF-539 CNS
HOP-92 NSCLC = tested on: HOP-92 NSCLC
TK-10 renal = tested on: TK-10 renal
MDA-MB-435 = tested on: MDA-MB-435
UACC-257 melanoma = tested on: UACC-257 melanoma
SK-MEL-2 melanoma = tested on: SK-MEL-2 melanoma
NCI-H522 lung = tested on: NCI-H522 lung

Structure (SMILES) | TGI (SNB-19 CNS) [µM] | TGI (NCI-H23 lung) [µM] | TGI (SF-268 CNS) [µM] | TGI (SF-539 CNS) [µM] | TGI (HOP-92 NSCLC) [µM] | TGI (TK-10 renal) [µM] | TGI (MDA-MB-435) [µM] | TGI (UACC-257 melanoma) [µM] | TGI (SK-MEL-2 melanoma) [µM] | TGI (NCI-H522 lung) [µM] | GI50 (NCI-H522 lung) [µM] | GI50 (NCI-H23 lung) [µM] | GI50 (SF-268 CNS) [µM] | GI50 (SF-539 CNS) [µM] | GI50 (HOP-92 NSCLC) [µM] | GI50 (MDA-MB-435) [µM] | GI50 (UACC-257 melanoma) [µM] | GI50 (SK-MEL-2 melanoma) [µM] | GI50 (SNB-19 CNS) [µM] | GI50 (TK-10 renal) [µM]
C=CC1=C(C)C2=NC1=CC1=NC(=CC3=C(C)C4=C(O)[C@H](C(=O)OC)C(=C5NC(=C2)[C@@H](C)[C@@H]5CCC(=O)O)C4=N3)C(CC)=C1C | > 100 | 9.12 | > 100 | 4.63 | 3.98 | 25.5 | > 46.5 | 42.7 | > 22.2 | – | – | – | – | – | – | – | – | – | – | –
COc1ccc2c(NCCCCCCNc3c4ccccc4nc4cc(OC)ccc34)c3ccccc3nc2c1 | 3.75 | 0.819 | 12.5 | 1.03 | 2.07 | 4.56 | 1.26 | 4.12 | 1.67 | 0.34 | – | – | – | – | – | – | – | – | – | –
COc1cccc2c(=O)c3c(sc12)c(NCCCNCCO)nc1ccccc13 | – | 3.27 | 3.33 | 3.1 | 13.1 | – | 3.2 | 3.79 | 3.74 | 3.45 | 1.58 | 1.64 | 1.59 | 1.68 | 1.32 | 1.72 | 1.94 | 1.83 | – | –
CC(C)[O-].CC(C)[O-].CN(CCN(C)Cc1cc(F)cc(F)c1[O-])Cc1cc(F)cc(F)c1[O-].[Ti+4] | 8.15 | 2.72 | 3.22 | 4.8 | 1.18 | 7.26 | 2.1 | 3.9 | 4.95 | 2.33 | 0.777 | 0.706 | 1.04 | 1.01 | 0.316 | 0.585 | 1.15 | 1.52 | 0.909 | 1.42
O=C(c1cccs1)C1NO[N+]([O-])=C1c1cccs1 (centres undefined) | > 79.2 | 9.42 | 5.98 | 3.39 | 3.59 | 6.27 | 16.3 | 15.3 | 24.5 | 0.336 | 0.174 | 2.94 | 2.35 | 1.86 | 1.65 | 5.29 | 5.16 | 11.2 | 29.9 | 2.45
CCN(CC)c1ccc(/C=C/C2=[N+](C)c3ccccc3C2(C)C)c(C)c1 | 9.36 | 10.5 | 2.11 | 7 | 0.148 | 5.3 | 1.32 | 0.226 | 0.582 | 0.269 | 0.0482 | < 0.0244 | 0.1 | 0.0939 | 0.0217 | 0.0653 | 0.0546 | 0.0792 | 0.0684 | 0.0779
CCNCCNc1cc(-c2ccc(C#N)cc2)c(C#N)c2nc3ccccc3n12 | 17.4 | 21.3 | 14.1 | 3.49 | 4.5 | 5.74 | 6.28 | 7.14 | 10.4 | 7.06 | 2.44 | 5.3 | 3.42 | 1.77 | 2.21 | 2.29 | 3.72 | 3.2 | 4.69 | 2.03
O=C(Cl)C1=C(c2ccccc2)C1c1ccccc1 (centres undefined) | > 100 | > 100 | > 100 | > 100 | > 100 | > 100 | > 100 | > 100 | > 100 | > 100 | – | – | – | – | – | – | – | – | – | –
CCOC(=O)c1c(SCCN2CCOCC2)n(-c2ccccc2)c(=S)n(-c2ccccc2)c1=O | > 100 | 92.3 | > 100 | – | > 100 | > 100 | > 100 | 48.1 | > 100 | > 100 | – | – | – | – | – | – | – | – | – | –
O=C(NCCN1CCNCC1)c1ccc(Nc2nc3ccccc3c3occc23)cc1 | > 100 | 27.6 | > 100 | 6.36 | 15.8 | 35.2 | 8.51 | 33.8 | 36.4 | 28.3 | 10.3 | 12.6 | 21.3 | 2.65 | 1.24 | 3.1 | 17 | 18.3 | 15.5 | 18.3
COc1ccc(Nc2nccc(N3CCN(c4c5ccc(Cl)cc5nc5ccc(OC)cc45)CC3)n2)cc1 | > 100 | > 100 | > 100 | > 100 | 77.1 | > 100 | > 100 | > 100 | – | 5.09 | 1.78 | 22.7 | 11.8 | 22.7 | 3.55 | 8.28 | > 100 | – | 18.5 | 11.5
O=C(/C=C/c1cccc(O)c1)c1cccc(-n2cc(-c3ccc4ccccc4c3)[nH]c2=O)c1 | 4.13 | 3.58 | 3.55 | 2.89 | 8.69 | 8.53 | 6.31 | 18.4 | 7.97 | 2.9 | 1.29 | 1.52 | 1.73 | 1.55 | 0.518 | 1.71 | 4.13 | 2.31 | 1.32 | 3.45
O=C(O)c1ccccc1C(=O)c1ccc2c(c1)Cc1ccccc1-2 | > 100 | > 100 | > 100 | > 100 | > 100 | > 100 | > 100 | > 100 | > 100 | > 100 | – | – | – | – | – | – | – | – | – | –
Cc1ccc(NC(=O)/C(Cc2cc(=O)oc3cc(O)ccc23)=N\NC(=O)C[N+](C)(C)C)cc1C | > 100 | > 100 | > 100 | > 100 | > 100 | > 100 | > 100 | > 100 | > 100 | > 100 | – | – | – | – | – | – | – | – | – | –
c1cnn2ncc(-c3ccnc(Nc4ccc5c(c4)OCCO5)n3)c2c1 | > 25 | 0.286 | 0.311 | 0.222 | 0.162 | 0.224 | 0.516 | 0.198 | 0.121 | 0.592 | 0.116 | 0.0692 | 0.0687 | 0.0679 | 0.0593 | 0.0813 | 0.0671 | 0.0483 | 0.0882 | 0.0685
COc1cc2nc(-c3ccc(C(F)(F)F)cc3)cc(OCCCN3CCCC3)c2cc1OC | 21.5 | 17.6 | > 48.1 | 12.6 | 5.68 | > 34.5 | 15.1 | 8.51 | 11.2 | 25.8 | 1.15 | 2.9 | 3.5 | 2.56 | 0.351 | 1.15 | 1.37 | 3.41 | 5.23 | 7.51
CC(C)Oc1ccc(C(=O)Cn2ccnc2)cc1-n1c(CN2CCN(C(=O)COc3ccc(Cl)cc3)CC2)nc2ccccc2c1=O | > 100 | 37.7 | 32.9 | 30.4 | 35 | > 74.4 | 33.6 | 39.6 | 38.5 | 14.8 | 2.24 | 16.2 | 12.9 | 14.4 | 13.1 | 15.6 | 13.8 | 17.6 | 29.6 | 12.8
Cc1cccc(/C(Br)=C2/OC(=O)c3ccccc32)c1 | – | > 100 | > 100 | > 100 | > 100 | > 100 | > 100 | > 100 | – | > 100 | – | – | – | – | – | – | – | – | – | –
O=c1c2ccccc2sc2ccccc12 | > 100 | > 100 | > 100 | > 100 | > 100 | > 100 | > 100 | > 100 | > 100 | > 100 | – | – | – | – | – | – | – | – | – | –
CCn1c(-c2nonc2N)nc2ccncc21 | > 25 | > 25 | > 25 | > 25 | > 25 | > 25 | > 25 | > 25 | > 25 | > 25 | > 25 | > 25 | > 25 | > 25 | > 25 | > 25 | > 25 | > 25 | > 25 | > 25
CC1OC(c2ccc3c(c2O)C(=O)C2=C(C3=O)C3(O)C(=O)CC(C)(O)CC3(O)C=C2)CC(O)C1O (centres undefined) | 58.8 | 45.6 | > 60 | 35.6 | 30.7 | 28.6 | > 42.5 | 29.3 | 42.4 | 5.86 | – | – | – | – | – | – | – | – | – | –
COc1cccc(COc2cc(-n3cnc4ccccc43)sc2C(N)=O)c1 | > 25 | > 25 | > 25 | > 25 | > 25 | > 25 | > 25 | > 25 | > 25 | > 25 | 9.92 | > 16.6 | 5.88 | 16 | > 5.9 | 1.3 | > 25 | > 15.4 | 14.4 | > 25
CC1c2ccccc2N=C2SC(=S)N3CCN=C3N21 (centres undefined) | > 100 | > 100 | > 100 | > 100 | > 100 | > 100 | > 100 | > 100 | – | > 100 | > 100 | > 100 | > 100 | > 100 | > 100 | > 100 | > 100 | – | > 100 | > 100
Cc1cc2c(cc1Cl)S/C(=C/C(=O)O)C(Nc1cccc3nsnc13)=NS2(=O)=O | > 66.8 | > 61.7 | > 84.4 | – | 62 | > 72.5 | > 71 | > 70.7 | > 77.8 | > 77.4 | 30.7 | 35.2 | 49.2 | – | 28.2 | 56.2 | > 57.9 | > 58.6 | > 52 | > 58
OCc1ccc(N2CCOCC2)cc1Cl | > 100 | > 100 | > 100 | > 100 | > 100 | 11.4 | > 100 | 24.1 | > 100 | > 100 | > 100 | > 100 | > 100 | > 100 | 34.6 | > 100 | 7.2 | > 100 | > 100 | 2.94
O=[N+]([O-])c1ccc(-c2cc3c(Nc4ccc(Cl)c(C(F)(F)F)c4)ncnc3s2)cc1 | > 86.4 | > 100 | > 100 | 9.4 | 4.95 | > 100 | > 100 | > 26.8 | 6.42 | 5.13 | 0.566 | 1.06 | 1.34 | 1.88 | 0.963 | 2.24 | 2.95 | 2.4 | 1.29 | 3.56
O=[N+]([O-])c1cc(Cl)ccc1Sc1ccccc1 | > 100 | > 100 | > 100 | > 100 | > 100 | > 100 | > 100 | > 100 | > 100 | > 100 | – | – | – | – | – | – | – | – | – | –
CCCCCCCCCCCCCC[n+]1cccc(C(N)=O)c1 | 2.4 | 13.6 | 4.48 | – | 3.49 | 2.02 | 3.24 | 8.46 | 4.69 | 6.24 | 1.31 | 2.28 | 1.66 | – | 0.657 | 1.5 | 2.34 | 2.13 | 1.01 | 0.675
Cc1cccc(N=Nc2ccc(N=Nc3c(O)ccc4ccccc34)cc2C)c1 | > 100 | > 100 | > 100 | > 100 | > 100 | > 100 | > 100 | > 100 | > 100 | 37.6 | – | – | – | – | – | – | – | – | – | –
